Source: US20090068110A1, “ANTIBODIES TO INSULIN-LIKE GROWTH FACTOR RECEPTOR” (Genentech, Inc., priority 2006, published 2009)

Legend:
[1] = test system: Colo205-e215 xenograft tumors; test: Colo205-e215 xenograft, combination with 5-FU; type: in vivo, athymic nude mice; settings: h10H5.vX weekly IP; 5-FU 100 mg/kg weekly for first three weeks
Excerpt: (§1) Female nude (nu/nu) and C.B-17 SCID beige mice were obtained from Charles Rivers Laboratories, Inc. (Hollister, Calif.). Animals were about six to eight weeks old and weighed about 25 grams each. Mice were acclimated to study conditions for at least three days before tumor-cell inoculations. The animals were housed in standard rodent micro-isolator cages. Only animals that appeared to be healthy and that were free of obvious abnormalities were used for the study. Each mouse was given a subcutaneous injection of SK-N-AS cells (10 million), SW527 cells (5 million), Colo205 cells (5 million), or A549 cells (5 million) into the dorsal right flank in a volume of 0.2 mL. Data collected from each experimental group were expressed as mean tumor volume±the standard error of the mean (SEM). Tumors were monitored until they reached a mean volume of 130-260 mm3. […] Tumors were measured twice weekly throughout the experiment starting on the first day of treatment. Tumor volumes were measured in two dimensions (length and width) using ULTRA CAL-IV™ calipers (Model 54-10-111, Fred V. Fowler Company, Inc.; Newton, Mass.), and calculated using the formula of: […]
(§2) Tumor-inhibition and body-weight graphs were plotted using […]™ 3.6 software (Synergy Software; Reading, Pa.). […]

[2] = test system: A549 tumors; test: A549 lung-cancer xenograft model; type: in vivo, athymic nude mice; settings: h10H5.vX 5 mg/kg IP two times per week; vinorelbine 9 mg/kg weekly for first three weeks
Excerpt: as §1, §2

[3] = target: T1, IGF-1R α- and β-subunit in SK-N-AS cells (Homo sapiens, UniProt P08069); test: h10H5-induced IGF-1R down-regulation with proteasome or lysosomal protease inhibitors; type: cell-based; settings: one hour pretreatment; 30 μM bortezomib or 5 μM pepstatin A and 10 μg/ml leupeptin
T1 construct: h10H5-induced IGF-1R downregulation, SK-N-AS cells were pretreated; endogenous in cells; host or cells: SK-N-AS
Protocol: Both proteasome and lysosome pathways have been implicated in ligand-mediated IGF-1R degradation. To examine whether these pathways contribute to h10H5-induced IGF-1R downregulation, SK-N-AS cells were pretreated with either a combination of 5 μM of pepstatin A and 10 μg/ml of leupeptin or 30 μM of VELCADE® bortezomib for one hour, and subsequently exposed to h10H5 treatment for 1 to 8 hours in the presence of protease or protesome inhibitors. Cell lysates were analyzed for IGF-1R α-subunit and β-subunit by Western blotting. β-actin was used as a loading control. Because the extracellular (ECD) and intracellular (ICD) domains are exposed to different cellular environments during the internalization and trafficking processes, antibodies that specifically react to the α-subunit that is a major part of ECD or the C-terminus of the β-subunit, and therefore a part of ICD, were used for Western blot analysis.

[4] = CHF patients, enalapril in addition to conventional therapy; cited from earlier work

O=c1[nH]cc(F)c(=O)[nH]1 [5-FU, 5-fluorouracil]
% TGI at day 27 [1]: 53%

CCC1=C[C@@H]2CN(C1)Cc1c([nH]c3ccccc13)[C@@](C(=O)OC)(c1cc3c(cc1OC)N(C)[C@H]1[C@@](O)(C(=O)OC)[C@H](OC(C)=O)[C@]4(CC)C=CCN5CC[C@]31[C@@H]54)C2 [vinorelbine]
inhibition of tumor growth (TGI) at day 21 [2]: 45%

CC(C)C[C@H](NC(=O)[C@H](Cc1ccccc1)NC(=O)c1cnccn1)B(O)O [VELCADE® bortezomib, bortezomib]
effect on h10H5-induced IGF-1R subunit downregulation [3]: more effective in preventing β-subunit downregulation

CCOC(=O)[C@H](CCc1ccccc1)N[C@@H](C)C(=O)N1CCC[C@H]1C(=O)O [enalapril]
reduction of the risk of developing cardiac cachexia [4]: 19%
